Calls of active or inactive are those of the source.
Columns and labels:
[1] = biological target: Cytochrome P450 2C9 (Homo sapiens, UniProt P11712)
[2] = biological target: Cytochrome P450 2C19 (Homo sapiens, UniProt P33261); assay: Cytochrome panel assay with activity outcomes. Panel member name: p450-cyp2c19 Compounds with AC50 equal or less than 10 uM are considered active; format: functional
[3] = biological target: T1, Corticotropin-releasing factor receptor 2/Corticotropin-releasing factor-binding protein (Homo sapiens, UniProt P24387+Q13324); assay: Dose Response confirmation of uHTS hits for small molecule antagonists of the CRF-binding protein and CRF-R2 receptor complex.; format: functional; settings: read-out: IC50_Mean
T1 sequence (Q13324 whole entry): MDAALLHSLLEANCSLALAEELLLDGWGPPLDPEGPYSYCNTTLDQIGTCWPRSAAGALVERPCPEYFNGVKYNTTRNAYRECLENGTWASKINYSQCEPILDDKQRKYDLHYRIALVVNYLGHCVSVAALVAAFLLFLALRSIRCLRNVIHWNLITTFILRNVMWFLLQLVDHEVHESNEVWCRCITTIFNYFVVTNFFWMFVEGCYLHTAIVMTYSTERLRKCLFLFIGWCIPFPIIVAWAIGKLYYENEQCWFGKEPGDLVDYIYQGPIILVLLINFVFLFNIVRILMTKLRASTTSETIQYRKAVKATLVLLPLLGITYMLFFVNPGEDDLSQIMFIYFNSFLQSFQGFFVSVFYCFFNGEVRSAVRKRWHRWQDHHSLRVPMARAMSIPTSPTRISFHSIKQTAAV
T1 sequence (P24387 whole entry): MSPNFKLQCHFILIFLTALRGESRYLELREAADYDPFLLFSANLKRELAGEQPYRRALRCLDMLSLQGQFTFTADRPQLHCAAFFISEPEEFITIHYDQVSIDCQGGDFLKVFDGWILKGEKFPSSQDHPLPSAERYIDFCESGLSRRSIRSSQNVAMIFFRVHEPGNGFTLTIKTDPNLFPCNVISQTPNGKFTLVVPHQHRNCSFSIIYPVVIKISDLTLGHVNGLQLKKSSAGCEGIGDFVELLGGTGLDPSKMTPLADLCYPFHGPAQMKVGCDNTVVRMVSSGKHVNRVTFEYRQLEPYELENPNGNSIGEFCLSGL

[4] = biological target: T1, Corticotropin-releasing factor receptor 2/Corticotropin-releasing factor-binding protein; assay: activators of CRF receptor 2 with binding protein – uHTS hits, confirmation (AID 602473); format: functional; settings: read-out: EC50_Mean
[5] = cells; format: functional, cell-based
[6] = cells; format: functional, cell-based; remark: listed apart in the source
[7] = loss of viability in HepG2 cells – cell-based, CellTiter-Glo, cherry-picked, cytotoxicity control for Shn3 inhibitor project, dose response (AID 624134); format: functional
[8] = reduction of Shn3 3'UTR-driven luciferase in osteoblasts – cell-based, Clone20 osteoblasts, firefly luciferase, cherry-picked, dose response (AID 624132); format: functional;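 also: firefly luciferase luminescence from reporter carrying the Shn3 3'UTR in osteoblasts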
[9] = non-specific 3'UTR reporter inhibition in Clone20-Shn3RL – cell-based, Renilla luciferase, cherry-picked, counter-screen for Shn3 inhibitor project, dose response (AID 624133); format: functional
[10] = general mammalian cell viability loss – inhibitor set, cherry-pick, set 2, cytotoxicity control for miR-122 modulator project, dose response (AID 720697); format: functional, cell-based
[11] = Trypanosoma cruzi growth suppression in host cells – NIH3T3 host cells, beta-gal luminescence, confirmation (AID 2044); format: functional, cell-based;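 also: intracellular parasites grown in NIH/3T3 mouse fibroblasts as host cells; luminescent beta-galactosidase reporter signal from transgenic T. cruzi replicating inside host cells; inhibitors lower the luminescence signal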
[12] = NIH3T3 cell viability loss – ATP luminescence, mouse fibroblasts, counter-screen, dose response (AID 2010); format: functional, cell-based;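 also: cells exposed to compound for about 90 hours before reading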
[13] = activation of miR-122 Renilla sensor silencing – cell-based, Huh7 psiCHECK-miR122, Renilla luciferase, cherry-picked, dose response (AID 651956); format: functional;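 also: huh7 hepatoma cells stably carrying a psiCHECK-2 miR-122 sensor plasmid; renilla luciferase signal reporting endogenous miR-122 activity after 48 h compound exposure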
[14] = general mammalian cell viability loss – activator set, cherry-pick, cytotoxicity control for miR-122 modulator project, dose response (AID 720690); format: functional, cell-based;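 also: HEK293T human cells scored for general mammalian cytotoxicity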
[15] = toxicity toward HepG2 liver cells – cell-based, plate reader, cherry-pick, antagonist series, cytotoxicity control, dose response (AID 743416); format: functional
[16] = blockade of melanocortin 4 receptor signaling – cell-based, plate reader, cherry pick, counter-screen for LGR2 antagonist project, dose response (AID 743444); format: functional;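 also: transfected HEK 293 cells stimulated with alpha-MSH peptide; potency of inhibitors of the alpha-MSH evoked signal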
[17] = blockers of bursicon-stimulated LGR2 cAMP reporter – cell-based, HEK293, CRE-luciferase reporter, cherry pick, set 2, dose response (AID 743343); format: functional;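 also: transfected cells were stimulated with diluted bursicon conditioned medium after compound addition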

Chain of Cytochrome P450 2C19 (P33261 whole entry): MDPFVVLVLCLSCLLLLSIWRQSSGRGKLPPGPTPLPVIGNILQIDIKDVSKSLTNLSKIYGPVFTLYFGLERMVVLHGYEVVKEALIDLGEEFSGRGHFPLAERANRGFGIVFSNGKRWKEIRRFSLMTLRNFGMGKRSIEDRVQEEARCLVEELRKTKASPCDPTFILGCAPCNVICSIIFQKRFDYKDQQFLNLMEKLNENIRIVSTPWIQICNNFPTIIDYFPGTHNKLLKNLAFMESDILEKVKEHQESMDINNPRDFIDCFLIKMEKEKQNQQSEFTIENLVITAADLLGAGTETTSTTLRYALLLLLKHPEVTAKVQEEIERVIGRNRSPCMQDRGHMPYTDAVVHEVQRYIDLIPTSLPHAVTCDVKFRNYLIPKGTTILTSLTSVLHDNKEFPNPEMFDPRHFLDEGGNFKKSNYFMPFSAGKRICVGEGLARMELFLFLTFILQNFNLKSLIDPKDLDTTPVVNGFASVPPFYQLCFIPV
Chain of Cytochrome P450 2C9 (P11712 whole entry): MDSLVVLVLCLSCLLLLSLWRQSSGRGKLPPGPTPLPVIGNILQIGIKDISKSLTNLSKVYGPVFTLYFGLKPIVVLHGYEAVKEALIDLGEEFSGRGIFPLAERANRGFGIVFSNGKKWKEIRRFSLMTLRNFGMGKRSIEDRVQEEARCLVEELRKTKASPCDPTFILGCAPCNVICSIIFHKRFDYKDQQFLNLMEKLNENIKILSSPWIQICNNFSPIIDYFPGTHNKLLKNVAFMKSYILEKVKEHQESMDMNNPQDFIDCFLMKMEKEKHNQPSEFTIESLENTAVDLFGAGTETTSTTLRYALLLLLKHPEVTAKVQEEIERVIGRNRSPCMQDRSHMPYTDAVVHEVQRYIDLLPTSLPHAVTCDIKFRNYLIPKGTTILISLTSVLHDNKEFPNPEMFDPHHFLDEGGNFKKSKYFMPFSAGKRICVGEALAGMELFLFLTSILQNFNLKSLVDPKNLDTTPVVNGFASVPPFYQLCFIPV

In the case of `Cc1cc2nc(C)n(CCCN)c2cc1C.Cl`, the AC50 [1] is reported as “inconclusive”, the AC50 [2] is reported as “inconclusive” and the IC50 [3] is reported as > 47.1 µM (inactive). The EC50 [4] was > 53 µM (inactive).

With `O=C(CN1CCC(C(=O)c2ccc(Cl)cc2)CC1)Nc1ccc2c(c1)OCCO2` the EC50 [5] was > 350 µM (not active) and the EC50 [6] was > 350 µM (not active).

For `CCCSCCCNC(=O)c1ccccc1NC(=O)C1=CSCCO1`, the EC50 [5] was 297 µM (active) and the EC50 [6] was > 350 µM (not active).

With `CC(C)CC(N)c1csc(NC(=O)c2cc(C(C)(C)C)nn2Cc2ccccc2)n1` (stereo unspecified) the AC50 [7] was 8.75 µM (active), the AC50 [8] was 4.85 µM (active) and the AC50 [9] was 20.8 µM (active).

In the case of `COc1ccc(CN2CCOC2=O)cc1OC`, the AC50 [10] is reported as 9.25 µM (active).

In the case of `CC1=Nc2nnnn2C(c2cccnc2)/C1=C(\O)OC1CCCCC1` (stereo unspecified), the EC50 [11] is reported as 1.79 µM (active), the AC50 [7] is reported as > 70 µM (inactive) and the EC50 [12] is reported as > 60 µM (not active). The AC50 [8] was 3.23 µM (active) and the AC50 [9] was 3.92 µM (active).

With `C/C=C/c1ccc([C@H]2[C@@H](CNC(=O)CC)N(Cc3ccccn3)[C@H]2CO)cc1` the AC50 [10] was 0.454 µM (active).

For `C[C@@H]1CN([C@H](C)CO)S(=O)(=O)c2ccc(C#Cc3ccccc3F)cc2O[C@@H]1CN(C)C(=O)Cc1ccncc1`, the AC50 [13] was 5.11 µM (active) and the AC50 [14] was 32.4 µM (active).

In the case of `C[C@@H]1CCCCO[C@@H](CN(C)Cc2ccc3c(c2)OCO3)[C@H](C)CN([C@H](C)CO)C(=O)c2cc(NC(=O)Nc3ccc(C(F)(F)F)cc3)ccc2O1`, the AC50 [13] is reported as 5.55 µM (active), the AC50 [14] is reported as 9.09 µM (active) and the AC50 [10] is reported as 8.08 µM (active).

With `C[C@H](CO)N1C[C@H](C)[C@@H](CN(C)Cc2ccc(Oc3ccccc3)cc2)Oc2ncc(-c3cncnc3)cc2C1=O` the AC50 [13] was 26 µM (active) and the AC50 [10] was 0.511 µM (active).

For `CC(=O)N1CCCC(c2cc(C(=O)Nc3ccccc3)no2)C1` (stereo unspecified), the AC50 [15] was > 52 µM (inactive), the AC50 [16] was 1.98 µM (active) and the AC50 [17] was 2.13 µM (active).

In the case of `COc1ccc(NC(=O)N(C)C[C@H]2Oc3cc(C#CCC(C)C)ccc3S(=O)(=O)N([C@@H](C)CO)C[C@H]2C)cc1`, the AC50 [14] is reported as 27 µM (active) and the AC50 [10] is reported as 6.46 µM (active).

For `CN1C(=O)c2cc(NC(=O)Nc3ccccc3F)ccc2OC[C@@H]2O[C@@H](CC(=O)NCc3ccc(-c4ccccc4)cc3)CC[C@@H]21`, the AC50 [14] was 47.9 µM (active).
